What was measured:
[1] = system: HBV replication in HepAD38 cells; test: Anti-HBV replication assay in HepAD38 cells (QPCR of extracellular HBV DNA); type: cell-based, HBV (genotype D, serotype ayw); conditions: Hepatitis B virus, 168 h, 7 days incubation, extracellular HBV DNA by QPCR, read-out: Anti-HBV EC50
Outline: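 HepAD38 cells (HepG2 carrying tet-repressible HBV genotype D genome) induced by tetracycline withdrawal, treated 7 days at 37 °C with compound ([…], 1-log10 dilutions). Extracellular HBV DNA quantified by QPCR against a standard curve, normalised to DMSO; EC50 from 4-parameter fit.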

[2] = In vitro cytotoxicity assay (MTT cell viability) in HepG2 cells; type: cell-based, human; conditions: human
Outline: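 Using MTT conversion as the viability measure, HepG2 cells were incubated with compounds for 7 days (30 μM to 1.0 nM). Absorbance at 492 nm was normalized to vehicle and fitted to give CC50.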

## Cc1c(C(=O)Nc2cc(F)c(F)c(F)c2)c(Cl)c(C(=O)C(=O)NC(C)(C)CO)n1C [Example 373, 4-chloro-5-(2-((1-hydroxy-2-methylpropan-2-yl)amino)-2-oxoacetyl)-1,2-dimethyl-N-(3,4,5-trifluorophenyl)-1H-pyrrole-3-carboxamide]
[1]
  EC50: < 50 nM
[2]
  CC50 at 7 days: 500 to 4990 nM

## Cc1cc(Cl)cc(NC(=O)c2c(C)c(C(=O)C(=O)N[C@]3(C)CC[C@@H](O)CC3)n(C)c2C)c1 [Example 687, N-(3-chloro-5-methylphenyl)-5-(2-(((1r,4r)-4-hydroxy-1-metthylcyclohexyl)amino)-2-oxoacetyl)-1,2,4-trimethyl-1H-pyrrole-3-carboxamide]
[1]
  EC50: < 50 nM
[2]
  CC50 at 7 days: 5000 to 30000 nM

## CC(=O)N1CC[C@@H](NC(=O)C(=O)c2c(C)c(C(=O)Nc3ccc(F)c(C)c3)c(C)n2C)C1 [Example 664, (R)-5-(2-((1-acetylpyrrolidin-3-yl)amino)-2-oxoacetyl)-N-(4-fluoro-3-methylphenyl)-1,2,4-trimethyl-1H-pyrrole-3-carboxamide]
[1]
  EC50: < 50 nM
[2]
  CC50 at 7 days: > 30000 nM

## Cc1cc(NC(=O)c2c(C)c(C(=O)C(=O)N[C@H]3CCNC3=O)n(C)c2C)ccc1F [Example 671, (S)-N-(4-fluoro-3-emthylphenyl)-1,2,4-trimethyl-5-(2-oxo-2-((2-oxopyrroldin-3-yl)amino)acetyl)-1H-pyrrole-3-carboxamide]
[1]
  EC50: < 50 nM
[2]
  CC50 at 7 days: > 30000 nM

## Cc1c(C(=O)Nc2ccnc(Cl)c2)c(C)n(C)c1C(=O)C(=O)NC1(C(F)(F)F)CCOCC1 [Example 253, N-(2-chloropyridin-4-yl)-1,2,4-trimethyl-5-(2-oxo-2-((4-(trifluoromethyl)tetrahydro-2H-pyran-4-yl)amino)acetyl)-1H-pyrrole-3-carboxamide]
[1]
  EC50: < 50 nM
[2]
  CC50 at 7 days: > 30000 nM

## Cc1cc(NC(=O)c2c(Cl)c(C(=O)C(=O)NCC(C)(C)CO)n3c2CCCC3)cnc1F [Example 525, 2-chloro-N-(6-fluoro-5-methylpyridin-3-yl)-3-(2-((3-hydroxy-2,2-dimethylpropyl)amino)-2-oxoacetyl)-5,6,7,8-tetrahydroindolizine-1-carboxamide]
[1]
  EC50: > 1000 nM
[2]
  CC50 at 7 days: > 30000 nM

## Cc1c(C(=O)Nc2ccc(F)c(Cl)c2)c(C)n(C)c1C(=O)C(=O)Nc1ccccn1 [Example 309, N-(3-chloro-4-fluorophenyl)-1,2,4-trimethyl-5-(2-oxo-2-(pyridin-2-ylamino)acetyl)-1H-pyrrole-3-carboxamide]
[1]
  EC50: 50 to 499 nM
[2]
  CC50 at 7 days: > 30000 nM

## Cc1cc(NC(=O)c2c(C)c(C(=O)C(=O)NC34CC5CC(CC3C5)C4)n(C)c2C)ccc1F [Example 18, N-(4-fluoro-3-methylphenyl)-5-(2-(((2R,3as,5S,6as)-hexahydro-2,5-methanopentalen-3a(1H)-yl)amino)-2-oxoacetyl)-1,2,4-trimethyl-1H-pyrrole-3-carboxamide]
[1]
  EC50: < 50 nM
[2]
  CC50 at 7 days: > 30000 nM

## Cc1c(C(=O)Nc2ccc(F)c(F)c2)c2n(c1C(=O)C(=O)NCC(C)(C)CO)CCCC2 [Example 461, N-(3,4-difluorophenyl)-3-(2-((3-hydroxy-2,2-dimethylpropyl)amino)-2-oxoacetyl)-2-methyl-5,6,7,8-tetrahydroindolizine-1-carboxamide]
[1]
  EC50: < 50 nM
[2]
  CC50 at 7 days: 5000 to 30000 nM

## Cc1cc(Cl)cc(NC(=O)c2c(C)c(C(=O)C(=O)N[C@H](C)C(F)(F)F)n(C)c2C)c1 [Example 686, (R)-N-(3-chloro-5-methylphenyl)-1,2,4-trimethyl-5-(2-oxo-2-((1,1,1-trifluoropropan-2-yl)amino)acetyl)-1H-pyrrole-3-carboxamide]
[1]
  EC50: < 50 nM
[2]
  CC50 at 7 days: 500 to 4990 nM

## Cc1cc(NC(=O)c2c(C)c(C(=O)C(=O)NC3(C)CCN(C(=O)Nc4ccc(F)c(F)c4)CC3)n(C)c2C)ccc1F [Example 707, N-(3,4-difluorophenyl)-4-(2-(4-((4-fluoro-3-methylphenyl)carbamoyl)-1,3,5-trimethyl-1H-pyrrol-2-yl)-2-oxoacetamido)-4-methylpiperidine-1-carboxamide]
[1]
  EC50: < 50 nM
[2]
  CC50 at 7 days: 500 to 4990 nM

## Cc1cc(NC(=O)c2c(C)c(C(=O)C(=O)Nc3cccnc3)n(C)c2C)ccc1F [Example 204, N-(4-fluoro-3-methylphenyl)-1,2,4-trimethyl-5-(2-oxo-2-(pyridin-3-ylamino)acetyl)-1H-pyrrole-3-carboxamide]
[1]
  EC50: < 50 nM
[2]
  CC50 at 7 days: > 30000 nM

## Cc1cc(NC(=O)c2c(C)c(C(=O)C(=O)N[C@H]3COC[C@@H]3O)n(C)c2C)ccc1F [Example 128, N-(4-fluoro-3-methylphenyl)-5-(2-(((3S,4R)-4-hydroxytetrahydrofuran-3-yl)amino)-2-oxoacetyl)-1,2,4-trimethyl-1H-pyrrole-3-carboxamide]
[1]
  EC50: < 50 nM
[2]
  CC50 at 7 days: > 30000 nM

## Cc1cc(NC(=O)c2c(C)c(C(=O)C(=O)NC3C(=O)NCC3(C)C)n(C)c2C)ccc1F (stereo not shown) [Example 679, 5-(2-((4,4-dimethyl-2-oxopyrrolidin-3-yl)amino)-2-oxoacetyl)-N-(4-fluoro-3-methylphenyl)-1,2,4-trimethyl-1H-pyrrole-3-carboxamide]
[1]
  EC50: < 50 nM
[2]
  CC50 at 7 days: > 30000 nM

## Cc1cc(NC(=O)c2c(C)c(C(=O)C(=O)NC3CCNCC3)n(C)c2C)ccc1F [Example 233, N-(4-fluoro-3-methylphenyl)-1,2,4-trimethyl-5-(2-oxo-2-(piperidin-4-ylamino)acetyl)-1H-pyrrole-3-carboxamide]
[1]
  EC50: 50 to 499 nM
[2]
  CC50 at 7 days: > 30000 nM

## Cc1cc(NC(=O)c2c(Cl)c(C(=O)C(=O)NC(C)(C)C(F)(F)F)n3c2CCCC3)cnc1F [Example 730, 2-chloro-N-(6-fluoro-5-methylpyridin-3-yl)-3-(2-oxo-2-((1,1,1-trifluoro-2-methylpropan-2-yl)amino)acetyl)-5,6,7,8-tetrahydroindolizine-1-carboxamide]
[1]
  EC50: 50 to 499 nM
[2]
  CC50 at 7 days: > 30000 nM

## Cc1cc(NC(=O)c2c(C)c(C(=O)C(=O)NC3CCN(C)C(=O)C3)n(C)c2C)ccc1F (stereo not shown) [Example 609, N-(4-fluoro-3-methylphenyl)-1,2,4-trimethyl-5-(2-((1-methyl-2-oxopiperidin-4-yl)amino)-2-oxoacetyl)-1H-pyrrole-3-carboxamide]
[1]
  EC50: < 50 nM
[2]
  CC50 at 7 days: > 30000 nM

## Cc1cnc(NC(=O)c2c(C)c(C(=O)C(=O)NC(C)(C)CO)n3c2CCCC3)s1 [Example 758, 3-(2-((1-hydroxy-2-methylpropan-2-yl)amino)-2-oxoacetyl)-2-methyl-N-(5-methylthiazol-2-yl)-5,6,7,8-tetrahydroindazoline-1-carboxamide]
[1]
  EC50: 50 to 499 nM
[2]
  CC50 at 7 days: > 30000 nM

## Cc1cc(NC(=O)c2c(C)c(C(=O)C(=O)NC(C)(C)C(=O)N3CCC(O)CC3)n(C)c2C)ccc1F [Example 597, N-(4-fluoro-3-methylphenyl)-5-(2-((1-(4-hydroxypiperidin-1-yl)-2-methyl-1-oxopropan-2-yl)amino)-2-oxoacetyl)-1,2,4-trimethyl-1H-pyrrole-3-carboxamide]
[1]
  EC50: < 50 nM
[2]
  CC50 at 7 days: > 30000 nM

## Cc1cc(NC(=O)c2c(C)c(C(=O)C(=O)N[C@@H](C(N)=O)C(C)(C)C)n(C)c2C)ccc1F [Example 40, (R)-5-(2-((1-amino-3,3-dimethyl-1-oxobutan-2-yl)amino)-2-oxoacetyl)-N-(4-fluoro-3-methylphenyl)-1,2,4-trimethyl-1H-pyrrole-3-carboxamide]
[1]
  EC50: 500 to 1000 nM
[2]
  CC50 at 7 days: 500 to 4990 nM

## Cc1c(C(=O)Nc2ccc(F)nc2)c(C)n(C)c1C(=O)C(=O)N[C@H]1C2CC3CC1C[C@](O)(C3)C2 [Example 92, N-(6-fluoropyridin-3-yl)-5-(2-(((1R,2s,3S,5s,7s)-5-hydroxyadamantan-2-yl)amino)-2-oxoacetyl)-1,2,4-trimethyl-1H-pyrrole-3-carboxamide]
[1]
  EC50: 50 to 499 nM
[2]
  CC50 at 7 days: > 30000 nM

## Cc1cc(NC(=O)c2c(C)c(C(=O)C(=O)NC3(c4nnn[nH]4)CCCC3)n(C)c2C)ccc1F [Example 636, 5-(2-((1-(1H-tetrazol-5-yl)cyclopentyl)amino)-2-oxoacetyl)-N-(4-fluoro-3-methylphenyl)-1,2,4-trimethyl-1H-pyrrole-3-carboxamide]
[1]
  EC50: < 50 nM
[2]
  CC50 at 7 days: > 30000 nM

## CC[C@@H](CO)NC(=O)C(=O)c1c(OC)c(C(=O)Nc2ccc(F)c(F)c2)c(C)n1C [Example 385, (S)-N-(3,4-difluorophenyl)-5-(2-((1-hydroxybutan-2-yl)amino)-2-oxoacetyl)-4-methoxy-1,2-dimethyl-1H-pyrrole-3-carboxamide]
[1]
  EC50: > 1000 nM
[2]
  CC50 at 7 days: > 30000 nM

## Cc1c(C(=O)Nc2ccc(F)cn2)c(C)n(C)c1C(=O)C(=O)NC12CC3CC(CC1C3)C2 [Example 135, N-(5-fluoropyridin-2-yl)-5-(2-(((2R,3as,5S,6as)-hexahydro-2,5-methanopentalen-3a(1H)-l)amino)-2-oxoacetyl)-1,2,4-trimethyl-1H-pyrrole-3-carboxamide]
[1]
  EC50: 50 to 499 nM
[2]
  CC50 at 7 days: 5000 to 30000 nM

## Cc1cc(NC(=O)c2c(C)c(C(=O)C(=O)NC3(C(F)(F)F)CCOCC3)n(C)c2C)cc(Cl)n1 [Example 638, N-(2-chloro-6-methylpyridin-4-yl)-1,2,4-trimethyl-5-(2-oxo-2-((4-(trifluoromethyl)etetrahydro-2H-pyran-4-yl)amino)acetyl)-1H-pyrrole-3-carboxamide]
[1]
  EC50: < 50 nM
[2]
  CC50 at 7 days: > 30000 nM

## Cc1cc(Cl)cc(NC(=O)c2c(C)c(C(=O)C(=O)N[C@H]3CNC(=O)C3)n(C)c2C)c1 [Example 684, (R)-N-(3-chloro-5-methylphenyl)-1,2,4-trimethyl-5-(2-oxo-2-((5-oxopyrrolidin-3-yl)amino)acetyl)-1H-pyrrole-3-carboxamide]
[1]
  EC50: < 50 nM
[2]
  CC50 at 7 days: > 30000 nM

Source: patent US20190375708A1 (VenatoRx Pharmaceuticals, Inc., priority 2018, published 2019)
